Each compound was assayed against T1, factor B (Homo sapiens, UniProt P00751) (assay: assay of Biological Example 2.7). Settings: assay of Biological Example 2.7 (Table 2).
Type: binding
Design: made in house; host or cells: drosophila cells
Target sequence in this assay (P00751 26-764): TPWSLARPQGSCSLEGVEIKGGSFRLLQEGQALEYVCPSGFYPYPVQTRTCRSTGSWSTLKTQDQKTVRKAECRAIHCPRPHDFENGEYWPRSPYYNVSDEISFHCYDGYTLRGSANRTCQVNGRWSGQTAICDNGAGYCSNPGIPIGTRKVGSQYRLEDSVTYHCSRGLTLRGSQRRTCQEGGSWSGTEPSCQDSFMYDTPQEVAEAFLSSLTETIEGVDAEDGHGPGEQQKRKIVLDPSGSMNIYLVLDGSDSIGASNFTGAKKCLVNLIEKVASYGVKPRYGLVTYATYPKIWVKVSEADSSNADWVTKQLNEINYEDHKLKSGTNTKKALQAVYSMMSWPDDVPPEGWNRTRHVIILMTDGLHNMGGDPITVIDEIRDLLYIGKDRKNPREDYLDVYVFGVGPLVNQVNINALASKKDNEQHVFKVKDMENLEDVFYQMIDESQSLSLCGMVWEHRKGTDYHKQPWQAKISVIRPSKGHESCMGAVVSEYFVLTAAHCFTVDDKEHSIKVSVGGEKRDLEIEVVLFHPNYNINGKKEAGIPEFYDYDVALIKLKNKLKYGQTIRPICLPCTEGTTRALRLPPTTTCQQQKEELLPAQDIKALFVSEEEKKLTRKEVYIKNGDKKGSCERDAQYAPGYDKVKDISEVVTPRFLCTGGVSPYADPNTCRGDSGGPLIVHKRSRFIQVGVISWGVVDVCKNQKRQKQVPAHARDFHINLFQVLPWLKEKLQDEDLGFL

Compound	IC50 [nM]
COc1cc(C)c2[nH]ccc2c1C(NCCN)(c1nc2cc(C#N)ccc2[nH]1)C(F)(F)F (racemic) [38-D b) (+), (+)-2-(1-((2-aminoethyl)amino)-2,2,2-trifluoro-1-(5-methoxy-7-methyl-1H-indol-4-yl)ethyl)-1H-benzo[d]imidazole-5-carbonitrile]	2060
COc1cc(C)c2[nH]ccc2c1C(NCCN)(c1nc2cc(C#N)ccc2[nH]1)C(F)(F)F (racemic) [38-D b) (−), (−)-2-(1-((2-aminoethyl)amino)-2,2,2-trifluoro-1-(5-methoxy-7-methyl-1H-indol-4-yl)ethyl)-1H-benzo[d]imidazole-5-carbonitrile]	780
COc1cc(C)c2[nH]ccc2c1C(OC(F)C(=O)O)(c1nc2cc(C#N)ccc2[nH]1)C(F)(F)F (racemic) [Example 35-G, (±)-2-(1-(5-Cyano-1H-benzo[d]imidazol-2-yl)-2,2,2-trifluoro-1-(5-methoxy-7-methyl-1H-indol-4-yl)ethoxy)-2-fluoroacetic acid]	770
COc1cc(C)c2[nH]ccc2c1C(OCc1nnc(C)o1)(c1nc2cc(C#N)ccc2[nH]1)C(F)(F)F (racemic) [Example 35-L, (±)-2-(2,2,2-Trifluoro-1-(5-methoxy-7-methyl-1H-indol-4-yl)-1-((5-methyl-1,3,4-oxadiazol-2-yl)methoxy)ethyl)-1H-benzo[d]imidazole-5-carbonitrile]	240
Cc1cc(C2CC2)c(C(OCC(=O)O)(c2nc3cc(C#N)ccc3[nH]2)C(F)(F)F)c2cc[nH]c12 (racemic) [Example 109-C, (±)-2-(1-(5-Cyano-1H-benzo[d]imidazol-2-yl)-1-(5-cyclopropyl-7-methyl-1H-indol-4-yl)-2,2,2-trifluoroethoxy)acetic acid]	65
COc1cc(C)c2[nH]ccc2c1C(OCC(C)(C)C(=O)O)(c1nc2cc(C#N)ccc2o1)C(F)(F)F (racemic) [Example 138, (±)-3-(1-(5-cyanobenzo[d]oxazol-2-yl)-2,2,2-trifluoro-1-(5-methoxy-7-methyl-1H-indol-4-yl)ethoxy)-2,2-dimethylpropanoic acid]	1220
COc1cc(C)c2[nH]ccc2c1C(NCCO)(c1nc2cc(C#N)ccc2[nH]1)C(F)(F)F (racemic) [Example 139-C, (±)-2-(2,2,2-Trifluoro-1-((2-hydroxyethyl)amino)-1-(5-methoxy-7-methyl-1H-indol-4-yl)ethyl)-1H-benzo[d]imidazole-5-carbonitrile]	120
COc1cc(C)c2[nH]ccc2c1C(NCC(=O)O)(c1nc2cc(C#N)ccc2[nH]1)C(F)(F)F (racemic) [Example 140-B, (±)-2-((1-(5-cyano-1H-benzo[d]imidazol-2-yl)-2,2,2-trifluoro-1-(5-methoxy-7-methyl-1H-indol-4-yl)ethyl)amino)acetic acid]	340
COc1cc(C)c2[nH]ccc2c1C1(c2nc3cc(C#N)ccc3[nH]2)CC1C(=O)O (racemic) [Example 142-D, (±)-2-(5-Cyano-1H-benzo[d]imidazol-2-yl)-2-(5-methoxy-7-methyl-1H-indol-4-yl)cyclopropanecarboxylic acid]	790
COc1cc(C)c2[nH]ccc2c1C1(c2nc3cc(C#N)ccc3o2)CC1C(=O)O (racemic) [Example 143, (±)-2-(5-Cyanobenzo[d]oxazol-2-yl)-2-(5-methoxy-7-methyl-1H-indol-4-yl)cyclopropanecarboxylic acid]	7200
CCOC(=O)C(C)(c1nc2cc(C#N)ccc2o1)c1c(OC)cc(C)c2[nH]ccc12 (racemic) [Example 144-D, (±)-Ethyl 2-(5-cyanobenzo[d]oxazol-2-yl)-2-(5-methoxy-7-methyl-1H-indol-4-yl)propanoate]	7950
COc1cc(C)c2[nH]ccc2c1C(CC(=O)O)c1nc2cc(C#N)ccc2[nH]1 (racemic) [Example 145-D, (±)-3-(5-Cyano-1H-benzo[d]imidazol-2-yl)-3-(5-methoxy-7-methyl-1H-indol-4-yl)propanoic acid]	41
COc1cc(C)c2[nH]ccc2c1C(CCO)c1nc2cc(C#N)ccc2[nH]1 (racemic) [Example 145-E, (±)-2-(3-hydroxy-1-(5-methoxy-7-methyl-1H-indol-4-yl)propyl)-1H-benzo[d]imidazole-5-carbonitrile]	250
COc1cc(C)c2[nH]ccc2c1C(CCC(=O)O)c1nc2cc(C#N)ccc2[nH]1 (racemic) [Example 146-C, (±)-4-(5-Cyano-1H-benzo[d]imidazol-2-yl)-4-(5-methoxy-7-methyl-1H-indol-4-yl)butanoic acid]	59
COc1cc(C)c2[nH]ccc2c1C(C)(CCC(=O)O)c1nc2cc(C#N)ccc2o1 (racemic) [Example 150-C, (±)-4-(5-cyanobenzo[d]oxazol-2-yl)-4-(5-methoxy-7-methyl-1H-indol-4-yl)pentanoic acid]	1020
COc1cc(C)c2[nH]ccc2c1C(CC(C)CO)c1nc2cc(C#N)ccc2[nH]1 (racemic) [Example 151-C, (±)-2-(4-Hydroxy-1-(5-methoxy-7-methyl-1H-indol-4-yl)-3-methylbutyl)-1H-benzo[d]imidazole-5-carbonitrile]	92
COc1cc(C)c2[nH]ccc2c1C(Cc1nn[nH]n1)c1nc2cc(C#N)ccc2[nH]1 (racemic) [Example 152, (±)-2-(1-(5-Methoxy-7-methyl-1H-indol-4-yl)-2-(2H-tetrazol-5-yl)ethyl)-1H-benzo[d]imidazole-5-carbonitrile]	67
COc1cc(C)c2[nH]ccc2c1C(Cc1nn[nH]n1)c1nc2cc(C#N)ccc2o1 (racemic) [Example 153, (±)-2-(1-(5-Methoxy-7-methyl-1H-indol-4-yl)-2-(2H-tetrazol-5-yl)ethyl)benzo[d]oxazole-5-carbonitrile]	1110
COc1cc(C)c2[nH]ccc2c1C(C)(Cc1nn[nH]n1)c1nc2cc(C#N)ccc2o1 (racemic) [Example 154, (±)-2-(2-(5-Methoxy-7-methyl-1H-indol-4-yl)-1-(2H-tetrazol-5-yl)propan-2-yl)benzo[d]oxazole-5-carbonitrile]	21100
COc1cc(C)c2[nH]ccc2c1C(C)(CCC(=O)O)c1nc2cc(C#N)ccc2[nH]1 (racemic) [Example 155-M, (±)-4-(5-Cyano-1H-benzo[d]imidazol-2-yl)-4-(5-methoxy-7-methyl-1H-indol-4-yl)pentanoic acid]	20
COC(=O)CC(C)(c1nc2cc(C#N)ccc2[nH]1)c1c(OC)cc(C)c2c1CCN2 (racemic) [Example 156-K, (±)-Methyl 3-(5-cyano-1H-benzo[d]imidazol-2-yl)-3-(5-methoxy-7-methylindolin-4-yl)butanoate]	130

These compounds were tested against T1, factor B (assay: factor B inhibition assay of Biological Example 1). Settings: IC50 (nM), assay of Biological Example 1 (Table 1).
Type: biochemical
Design: CVF-Bb complex prepared from purified cobra venom factor (1 μM), recombinant human complement factor B; made in house; host or cells: drosophila cells (factor B); E. coli (factor D used to form the complex)
Target sequence in this assay (P00751 260-764 limits assumed): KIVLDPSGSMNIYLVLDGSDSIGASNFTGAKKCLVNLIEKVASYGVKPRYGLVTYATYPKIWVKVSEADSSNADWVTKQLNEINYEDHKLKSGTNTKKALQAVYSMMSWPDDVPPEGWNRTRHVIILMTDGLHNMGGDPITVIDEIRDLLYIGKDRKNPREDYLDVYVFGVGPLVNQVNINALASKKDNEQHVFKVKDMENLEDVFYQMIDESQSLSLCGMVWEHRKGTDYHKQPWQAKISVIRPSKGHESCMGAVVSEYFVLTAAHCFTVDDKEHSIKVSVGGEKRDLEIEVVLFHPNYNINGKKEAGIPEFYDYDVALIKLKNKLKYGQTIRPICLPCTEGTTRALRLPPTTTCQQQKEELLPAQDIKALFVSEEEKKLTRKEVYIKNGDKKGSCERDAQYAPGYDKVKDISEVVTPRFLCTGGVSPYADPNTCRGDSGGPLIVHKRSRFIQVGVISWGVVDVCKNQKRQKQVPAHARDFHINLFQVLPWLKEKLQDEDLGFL
Target sequence in this assay (Q91132 23-649 partner limits assumed): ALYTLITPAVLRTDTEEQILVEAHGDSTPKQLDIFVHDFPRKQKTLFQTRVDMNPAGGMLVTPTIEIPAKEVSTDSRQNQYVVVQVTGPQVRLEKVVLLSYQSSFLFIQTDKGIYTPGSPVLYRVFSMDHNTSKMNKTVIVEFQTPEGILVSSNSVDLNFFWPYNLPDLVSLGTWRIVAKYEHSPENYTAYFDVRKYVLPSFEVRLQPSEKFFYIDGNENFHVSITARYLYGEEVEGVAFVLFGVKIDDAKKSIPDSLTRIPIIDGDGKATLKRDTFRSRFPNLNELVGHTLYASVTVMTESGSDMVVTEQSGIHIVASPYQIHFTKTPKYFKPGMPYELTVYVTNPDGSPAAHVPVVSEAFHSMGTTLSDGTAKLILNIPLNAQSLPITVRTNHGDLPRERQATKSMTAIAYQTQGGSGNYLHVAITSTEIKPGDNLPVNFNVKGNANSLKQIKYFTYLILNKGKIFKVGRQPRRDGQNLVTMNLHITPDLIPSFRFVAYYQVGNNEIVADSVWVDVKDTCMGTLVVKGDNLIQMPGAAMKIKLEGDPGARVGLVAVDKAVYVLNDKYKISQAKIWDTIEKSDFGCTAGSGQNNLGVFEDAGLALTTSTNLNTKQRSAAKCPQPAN
Target sequence in this assay (Q91132 733-984 partner limits assumed): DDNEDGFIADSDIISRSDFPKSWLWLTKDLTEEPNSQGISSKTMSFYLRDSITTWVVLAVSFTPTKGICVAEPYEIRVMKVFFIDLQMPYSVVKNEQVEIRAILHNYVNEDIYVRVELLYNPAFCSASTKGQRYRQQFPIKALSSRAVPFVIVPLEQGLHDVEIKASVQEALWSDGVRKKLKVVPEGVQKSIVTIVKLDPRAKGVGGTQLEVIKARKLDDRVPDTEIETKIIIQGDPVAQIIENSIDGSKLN
Target sequence in this assay (Q91132 1264-1642 partner limits assumed): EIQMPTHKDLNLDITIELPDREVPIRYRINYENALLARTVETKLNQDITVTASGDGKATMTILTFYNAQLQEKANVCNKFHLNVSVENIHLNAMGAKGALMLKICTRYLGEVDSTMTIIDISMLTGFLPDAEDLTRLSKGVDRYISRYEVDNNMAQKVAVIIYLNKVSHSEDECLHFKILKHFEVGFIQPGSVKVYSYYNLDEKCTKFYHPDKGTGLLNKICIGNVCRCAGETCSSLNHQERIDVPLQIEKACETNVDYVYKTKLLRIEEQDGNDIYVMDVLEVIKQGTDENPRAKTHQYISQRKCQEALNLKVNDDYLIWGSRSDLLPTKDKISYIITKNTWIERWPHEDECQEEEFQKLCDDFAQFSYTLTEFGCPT

Compound	IC50 [nM]
Cc1cc(C)c2[nH]cc(Cl)c2c1Cc1nc2cc(C#N)ccc2[nH]1 [Example 86, 2-((3-Chloro-5,7-dimethyl-1H-indol-4-yl)methyl)-1H-benzo[d]imidazole-5-carbonitrile]	270
CCc1cc(C)c2[nH]cc(C#N)c2c1Cc1nc2cc(C#N)ccc2[nH]1 [Example 90, 2-((3-Cyano-5-ethyl-7-methyl-1H-indol-4-yl)methyl)-1H-benzo[d]imidazole-5-carbonitrile]	110
Cc1cc(Cl)c2[nH]ccc2c1Cc1nc2cc(C#N)ccc2[nH]1 [Example 110-K, 2-((7-Chloro-5-methyl-1H-indol-4-yl)methyl)-1H-benzo[d]imidazole-5-carbonitrile]	3330
CCc1cc(C)c(Cc2nc3cc(C#N)ccc3[nH]2)c2cc[nH]c12 [Example 111-E, 2-((7-Ethyl-5-methyl-1H-indol-4-yl)methyl)-1H-benzo[d]imidazole-5-carbonitrile]	22900
Cc1cc(Br)c2[nH]ccc2c1Cc1nc2cc(C#N)ccc2[nH]1 [Example 112-E, 2-((7-Bromo-5-methyl-1H-indol-4-yl)methyl)-1H-benzo[d]imidazole-5-carbonitrile]	4150
Cc1cc(CO)c2[nH]ccc2c1Cc1nc2cc(C#N)ccc2[nH]1 [Example 113-F, 2-((7-(Hydroxymethyl)-5-methyl-1H-indol-4-yl)methyl)-1H-benzo[d]imidazole-5-carbonitrile]	9600
C=C(c1nc2cc(C#N)ccc2[nH]1)c1c(CC)cc(C)c2[nH]ccc12 [Example 114-C, 2-(1-(5-Ethyl-7-methyl-1H-indol-4-yl)vinyl)-1H-benzo[d]imidazole-5-carbonitrile]	70
C=C(c1nc2cc(C#N)ccc2[nH]1)c1c(OC)cc(C)c2[nH]ccc12 [Example 115, 2-(1-(5-Methoxy-7-methyl-1H-indol-4-yl)vinyl)-1H-benzo[d]imidazole-5-carbonitrile]	30
CCc1cc(C)c2[nH]cc(-c3ccn[nH]3)c2c1Cc1nc2cc(C#N)ccc2[nH]1 [Example 116-F, 2-((5-Ethyl-7-methyl-3-(1H-pyrazol-5-yl)-1H-indol-4-yl)methyl)-1H-benzo[d]imidazole-5-carbonitrile]	190
COc1cc(C)c2[nH]ccc2c1C(C)(C)c1nc2cc(C#N)ccc2[nH]1 [Example 122-C, 2-(2-(5-Methoxy-7-methyl-1H-indol-4-yl)propan-2-yl)-1H-benzo[d]imidazole-5-carbonitrile]	5
Cc1cc(C)c2c(c1Cc1nc3cc(C#N)ccc3[nH]1)CCN2 [Example 123, 2-((5,7-Dimethylindolin-4-yl)methyl)-1H-benzo[d]imidazole-5-carbonitrile]	920

Same assay, conditions: assay of Biological Example 1 (Table 1), read-out: IC50

Compound	IC50 [nM]
(+) or (−)-2-(1-methoxy-1-(7-methyl-5-(methylsulfonyl)-1H-indol-4-yl)ethyl)-1H-benzo[d]imidazole-5-carbonitrile [12-B b) (tr = 3.5 min)]	13800
(−) or (+)-2-(1-methoxy-1-(7-methyl-5-(methylsulfonyl)-1H-indol-4-yl)ethyl)-1H-benzo[d]imidazole-5-carbonitrile [12-B b) (tr = 6.1 min)]	600

From patent US9056874B2, “Complement pathway modulators and uses thereof” (NOVARTIS AG, priority 2012, dated 2015)
